pEC50, pIC50: −log10 of the molar value.
Tests used:
Cbl-b = target: T1, Cbl-b (Homo sapiens, UniProt Q13191); assay: Cbl-b probe displacement HTRF binding assay; conditions: 0.4 nM biotinylated Cbl-b, 150 nM BODIPY probe
T1 construct: biotin (biotinylated)
How it was run: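 Probe-displacement HTRF in Hepes/NaCl/Triton/TCEP/BSA buffer at room temperature: compound dilutions (to 10 μM) incubated 60 min with 0.4 nM biotin-Cbl-b, 150 nM BODIPY probe added for 15 min, Tb-streptavidin read. Signal normalised to DMSO and no-protein controls; IC50 from four-parameter curve.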

Jurkat cells = assay: IL-2 secretion assay in CD3/CD28-activated Jurkat cells (AlphaLISA); assay type: cell-based, human; conditions: Homo sapiens, CD3/CD28 T Cell Activator, 24 h, IL-2 AlphaLISA
How it was run: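 IL-2 release quantified by AlphaLISA in supernatants after 24 h CD3/CD28 activation at 37° C. Compounds, 10 μM to 300 pM final in 1:2 steps, were added to 50,000 Jurkat cells/well 1 h before activation; 4-parameter fit gave EC50.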

T1 sequence (Q13191 whole entry, species assumed): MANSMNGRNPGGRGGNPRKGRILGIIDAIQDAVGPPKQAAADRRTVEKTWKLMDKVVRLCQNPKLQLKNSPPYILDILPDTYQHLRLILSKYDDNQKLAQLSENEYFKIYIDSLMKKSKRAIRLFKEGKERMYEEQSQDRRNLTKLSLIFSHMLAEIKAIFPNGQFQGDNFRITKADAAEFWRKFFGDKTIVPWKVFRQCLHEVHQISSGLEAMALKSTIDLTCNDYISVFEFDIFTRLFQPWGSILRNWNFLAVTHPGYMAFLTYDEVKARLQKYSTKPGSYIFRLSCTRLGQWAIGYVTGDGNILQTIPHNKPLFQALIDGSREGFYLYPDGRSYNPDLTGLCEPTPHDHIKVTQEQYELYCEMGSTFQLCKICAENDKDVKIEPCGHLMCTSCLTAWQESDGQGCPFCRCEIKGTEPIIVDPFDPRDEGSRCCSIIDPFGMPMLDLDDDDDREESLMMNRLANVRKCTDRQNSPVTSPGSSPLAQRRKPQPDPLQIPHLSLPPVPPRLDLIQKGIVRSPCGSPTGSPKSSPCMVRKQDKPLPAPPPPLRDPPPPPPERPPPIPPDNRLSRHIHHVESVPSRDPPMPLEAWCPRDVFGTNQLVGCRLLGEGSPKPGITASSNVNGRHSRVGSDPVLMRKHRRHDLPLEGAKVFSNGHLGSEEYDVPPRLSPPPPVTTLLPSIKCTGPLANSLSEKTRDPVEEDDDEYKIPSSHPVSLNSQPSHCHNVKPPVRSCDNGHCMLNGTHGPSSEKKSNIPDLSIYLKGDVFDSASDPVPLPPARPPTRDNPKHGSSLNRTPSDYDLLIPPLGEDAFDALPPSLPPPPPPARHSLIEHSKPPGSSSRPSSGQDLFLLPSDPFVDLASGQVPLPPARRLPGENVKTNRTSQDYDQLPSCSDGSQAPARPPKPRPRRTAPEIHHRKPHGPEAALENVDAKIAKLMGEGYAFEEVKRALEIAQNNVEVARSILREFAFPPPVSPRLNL

Row | SMILES | pIC50 (Cbl-b) | pEC50 (Jurkat cells)
1 | CC(c1cc2c(S(C)(=O)=O)cn(-c3cc(-c4ccc(C#N)cc4-c4nccn4C)cc(C4CC4)n3)c(=O)c2[nH]1)N1CCC[C@H](C)C1 (mixture of isomers) [Example 101, 4-[2-(2-{1-[(S)-3-methyl-1-piperidyl]ethyl}-4-mesyl-7-oxo-1,6-dihydro-1,6-diaza-6-indenyl)-6-cyclopropyl-4-pyridyl]-3-(1-methyl-2-imidazolyl)benzonitrile] | > 7.00 | > 7.00
2 | C[C@H]1CCCN(Cc2cc3c(C4CC4)cn(-c4cc(-c5ccc(C#N)cc5-c5nc(C(F)(F)F)cn5C)cc(C5CC5)n4)c(=O)c3[nH]2)C1 [Example 117, 4-[2-(2-{[(S)-3-methyl-1-piperidyl]methyl}-4-cyclopropyl-7-oxo-1,6-dihydro-1,6-diaza-6-indenyl)-6-cyclopropyl-4-pyridyl]-3-[1-methyl-4-(trifluoromethyl)-2-imidazolyl]benzonitrile] | > 7.00 | 6.00 to 7.00
3 | Cn1cc(C#N)nc1-c1cc(F)ccc1-c1cc(C2CC2)nc(-n2cc(C(F)(F)F)c3nc([C@H]4CCOC4)[nH]c3c2=O)c1 [Example 48, 2-[2-(2-{2-[(R)-Tetrahydro-3-furyl]-4-oxo-7-(trifluoromethyl)-3,5-dihydro-1,3,5-triaza-5-indenyl}-6-cyclopropyl-4-pyridyl)-5-fluorophenyl]-1-methyl-4-imidazolecarbonitrile] | > 7.00 | > 7.00
4 | Cn1cnnc1-c1cc(C#N)ccc1-c1cc(C2CC2)nc(-n2cc(C3CC3)c3cc[nH]c3c2=O)c1 [Example 4] | 5.30 to 6.00 | < 5.30
5 | COCCN(C)Cc1cc2ncn(-c3cc(-c4ccc(F)cc4-c4nncn4C)cc(C4CC4)n3)c(=O)c2[nH]1 [Example 34, 3-[6-cyclopropyl-4-[4-fluoro-2-(4-methyl-1,2,4-triazol-3-yl)phenyl]pyridin-2-yl]-6-[[2-methoxyethyl(methyl)amino]methyl]-5H-pyrrolo[3,2-d]pyrimidin-4-one] | > 7.00 | > 7.00
6 | Cn1cnnc1-c1cc(F)ccc1-c1cc(C2CC2)nc(-n2cc(C#N)c3cc(C(O)C4CCOC4)[nH]c3c2=O)c1 (stereo not shown) [Example 90, 6-{6-cyclopropyl-4-[4-fluoro-2-(4-methyl-4H-1,2,4-triazol-3-yl)phenyl]-2-pyridyl}-2-[hydroxy(tetrahydro-3-furyl)methyl]-7-oxo-1,6-dihydro-1,6-diaza-4-indenecarbonitrile] | > 7.00 | 6.00 to 7.00
7 | Cn1cnnc1-c1cc(F)ccc1-c1cc(C2CC2)nc(-n2cc(C#N)c3cc(C(O)c4cccnc4)[nH]c3c2=O)c1 (stereo not shown) [Example 92, 6-{6-Cyclopropyl-4-[4-fluoro-2-(4-methyl-4H-1,2,4-triazol-3-yl)phenyl]-2-pyridyl}-2-[hydroxy(3-pyridyl)methyl]-7-oxo-1,6-dihydro-1,6-diaza-4-indenecarbonitrile] | > 7.00 | > 7.00
8 | Cn1ncnc1-c1cc(F)ccc1-c1cc(C2CC2)nc(-n2cnc3cc(CNC4(C)CCC4)[nH]c3c2=O)c1 [Example 120, 3-[6-cyclopropyl-4-[4-fluoro-2-(2-methyl-1,2,4-triazol-3-yl)phenyl]-pyridin-2-yl]-6-[[(1-methylcyclobutyl)amino]methyl]-5H-pyrrolo[3,2-d]pyrimidin-4-one] | > 7.00 | > 7.00
9 | C[C@@H]1CN(Cc2cc3c(C4CC4)cn(-c4cc(-c5ccc(F)cc5-c5nccn5C)cc(C#N)n4)c(=O)c3[nH]2)CCO1 [Example 63, 6-(2-{[(R)-2-methyl-4-morpholinyl]methyl}-4-cyclopropyl-7-oxo-1,6-dihydro-1,6-diaza-6-indenyl)-4-[4-fluoro-2-(1-methyl-2-imidazolyl)phenyl]-2-pyridinecarbonitrile] | > 7.00 | 6.00 to 7.00
10 | Cc1ccnnc1-c1cc(C#N)ccc1-c1cc(C2CC2)nc(-n2cc(C3CC3)c3cc(CNC4(CO)CCC4)[nH]c3c2=O)c1 [Example 76, 4-[2-Cyclopropyl-6-[4-cyclopropyl-2-[[[1-(hydroxymethyl)cyclobutyl]-amino]methyl]-7-oxo-1H-pyrrolo[2,3-c]pyridin-6-yl]pyridin-4-yl]-3-(4-methylpyridazin-3-yl)benzonitrile] | > 7.00 | > 7.00

Results, then the compound that gave them:

Row | pIC50 (Cbl-b) | pEC50 (Jurkat cells) | SMILES
11 | > 7.00 | 6.00 to 7.00 | COCCN(Cc1cc2ncn(-c3cc(-c4ccc(F)cc4-c4nncn4C)cc(C4CC4)n3)c(=O)c2[nH]1)CC(F)(F)F [Example 35, 6-{6-cyclopropyl-4-[4-fluoro-2-(4-methyl-4H-1,2,4-triazol-3-yl)phenyl]-2-pyridyl}-2-{[(2-methoxyethyl)(2,2,2-trifluoroethyl)amino]methyl}-1,6-dihydro-1,4,6-triaza-7-indenone]
12 | > 7.00 | > 7.00 | Cn1cnnc1-c1cc(F)ccc1-c1cc(C2CC2)nc(-n2cc(C(F)(F)F)c3c(C#N)c[nH]c3c2=O)c1 [Example 135, 6-[6-cyclopropyl-4-[4-fluoro-2-(4-methyl-1,2,4-triazol-3-yl)phenyl]pyridin-2-yl]-7-oxo-4-(trifluoromethyl)-1H-pyrrolo[2,3-c]pyridine-3-carbonitrile]
13 | > 7.00 | 6.00 to 7.00 | Cn1ccnc1-c1cc(F)ccc1-c1cc(C2CC2)nc(-n2cc(C3CC3)c3cc(CN4C[C@@H]5CC[C@H]4C5)[nH]c3c2=O)c1 [Example 56, 2-({(1S,4R)-2-azabicyclo[2.2.1]hept-2-yl}methyl)-4-cyclopropyl-6-{6-cyclopropyl-4-[4-fluoro-2-(1-methyl-2-imidazolyl)phenyl]-2-pyridyl}-1,6-dihydro-1,6-diaza-7-indenone]
14 | > 7.00 | > 7.00 | Cn1cnnc1-c1cc(F)ccc1-c1cc(C2CC2)nc(-n2cnc3cc(C(F)C4CCCC4)[nH]c3c2=O)c1 (stereo not shown) [Example 127, 6-[cyclopentyl(fluoro)methyl]-3-[6-cyclopropyl-4-[4-fluoro-2-(4-methyl-1,2,4-triazol-3-yl)phenyl]pyridin-2-yl]-5H-pyrrolo[3,2-d]pyrimidin-4-one]
15 | > 7.00 | 6.00 to 7.00 | Cn1cnnc1-c1cc(F)ccc1-c1cc(C2CC2)nc(-n2cnc3cc(CC4CCCC4)[nH]c3c2=O)c1 [Example 121, 6-(cyclopentylmethyl)-3-[6-cyclopropyl-4-[4-fluoro-2-(4-methyl-1,2,4-triazol-3-yl)phenyl]pyridin-2-yl]-5H-pyrrolo[3,2-d]pyrimidin-4-one]
16 | > 7.00 | > 7.00 | C[C@H]1CCCN(Cc2cc3c(C4CC4)cn(-c4cc(-c5ccc(F)cc5-c5nncn5C)cc(Cl)n4)c(=O)c3[nH]2)C1 [Example 6, 2-{1[(S)-3-Methyl-1-piperidyl]methyl}-6-{6-chloro-4-[4-fluoro-2-(4-methyl-4H-1,2,4-triazol-3-yl)phenyl]-2-pyridyl}-4-cyclopropyl-1,6-dihydro-1,6-diaza-7-indenone]
17 | > 7.00 | > 7.00 | Cn1ccnc1-c1cc(F)ccc1-c1cc(C2CC2)nc(-n2cc(C3CC3)c3cc(CNC(C)(C)C)[nH]c3c2=O)c1 [Example 62, 2-[(tert-butylamino)methyl]-4-cyclopropyl-6-{6-cyclopropyl-4-[4-fluoro-2-(1-methyl-2-imidazolyl)phenyl]-2-pyridyl}-1,6-dihydro-1,6-diaza-7-indenone]

Source: patent US20250011318A1 (ARCUS BIOSCIENCES, INC., priority 2023, published 2025)
